Tests used:
NRCMs [1] = assay: Lipid peroxidation by C11-bodipy 581/591 and flow cytometry; conditions: 100 µM, 3 hours, Fig. S15
Description: For ROS assessment, cells were washed with PBS once and stained with 10μM H2DCFHDA (MCE) in phenol red-free DMEM (Procell) in a humid incubator with 5% CO2 at 37°C for 30 minutes. Cells were washed with PBS twice and dissociated to single cells before flow cytometry analysis at the FITC channel. For lipid peroxidation measurement, cells were washed with PBS once and stained with 2μM C11-bodipy^581/591 (Cayman) in phenol red-free DMEM (Procell) in a humid incubator with 5% CO2 at 37°C for 30 minutes. Cells were washed with PBS twice and dissociated to single cells before flow cytometry analysis at both the FITC and the PE channels. Fluorescence of the oxidized C11-bodipy were acquired through the FITC channel (Ex/Em=488/520nm) and that of the non-oxidized C11-bodipy through the PE channel (Ex/Em=555/624nm).

patients = conditions: cited from earlier work; for level of cardiotoxicity based on literature reports: ref Table S1, 2, 4, 26–36
Cor.4U hiPSC-CMs [2] = assay: 3'DGE-UMI RNAseq transcriptome of hiPSC-CMs; conditions: for expression of genes associated with heart contraction: Cluster 4, day 3 or day 5; for expression of mitochondrial tRNA and electron transfer chain genes: high PC2 loadings
Cor.4U hiPSC-CMs [3] = assay: ATP level (CellTiter-Glo) in hiPSC-CMs; type: cell-based, human; conditions: for effect on ATP levels: 0.32 to 10 µM, day 1 to day 5; for dose-dependent toxicity (ATP fold changes): day 1, different doses; for dose-dependent toxicity (ATP fold changes) / time-dependent toxicity (ATP fold changes): RNAseq conditions; for time-dependent toxicity (ATP fold changes): fixed dose over 5 days
Description: ATP content was measured using the CellTiter-Glo Luminescent Cell Viability Assay (Promega) following the manufacturer’s protocol. After adding CellTiter-Glo reagents and incubation, luminescence was quantified using a Synergy H1 plate reader (BioTek Instruments). ATP standards were prepared from 0.01 to 5 μM. For each drug, we fitted a four-parameter log-logistic model to calculate ED50 at day 5 (Fig S1). To rank the cellular toxicity of the eight TKIs (Fig 1T), we calculated (EC50-Cmax)/(EC50+Cmax) and arranged from the smallest to the biggest for increasing cellular toxicity.

HELP hiPSC-CMs = assay: CardioExcyte 96 microelectrode array: base impedance and extracellular field potential; type: cell-based, human; conditions: fixed doses: 10 µM, crizotinib and ponatinib 3.16 µM; up to 24 h
Description: HELP hiPSC-CMs were seeded evenly into the 96-well microelectrode array, NSP-96 0.6mm sensor plate (Nanion technologies), at 50,000 cells per well. Measurements were started after 3-5 days of culture of these cells and until the impedance and the extracellular field potential are stable. Measurements were taken a few times before drug addition, and every 30~60 minutes after the drugs were added at 2x concentration. Values were averaged from 3 wells per group. Beat rate, amplitude of impedance, base impedance and FPDc were calculated by the Cardio Excyte Control 96 software package (Nanion Technologies).

NRCMs [4] = assay: Seahorse assay: oxygen consumption and extracellular acidification; type: cell-based, rat; conditions: 24 h; fixed doses: 10 µM, crizotinib and ponatinib 3.16 µM
Description: (§1) Rats were euthanized by decapitation and thoracic cavity was opened with scissors and hearts were popped out of the opening gently with fingers. Hearts were clipped and put in HBSS immediately; 20–40 hearts were collected into one sterile vial containing a magnetic stir bar and 1 mL digestive media made of 0.1% trypsin (Macklin) and 0.05% collagenase (Gibco) in HBSS. Hearts were minced until they were uniform in size. Digestive media was added to 10 mL for 40 hearts and stirred gently for 6 min. Supernatant was discarded and the digestion was repeated once; 10 mL digestive media was added and stirred gently for 10 min. The supernatant with cells were collected and the digestion and collection were repeated 4 times. Cells were centrifuged at 1200 rpm for 5 min, resuspended in media (Dulbecco’s modified Eagleʼs medium (Gibco)) with 10% fetal bovine serum (FBS; VISTECH), 1% penicillin–streptomycin, and 1% 0.1 M 5-bromo-2-deoxyuridine solution (Shanghai Yuanye) and filtered through a 40-μm cell strainer. Cells were seeded on a 100-mm plastic dish and cultured in a 5% CO2 incubator at 37 °C for 2 h to allow non-myocytes to adhere to the plate. The dish was swirled and media gently pipetted up and down to detach lightly attached cardiomyocytes. The collected myocytes were seeded in the same media described before; 48 h after plating, medium was exchanged to fresh DMEM (Gibco) with or without 2% FBS. All drug treatments were performed after this media change.
NRCMs were seeded evenly into the Seahorse XF96 cell culture plates (Agilent) and cultured in DMEM high glucose with 2% FBS. About 2 hours before the test, cells were moved to a non-CO2 incubator at 37 ° C and incubated for 1 hour. 1 hour prior to the test, culture media was replaced with the Seahorse Basal DMEM at 37°C (with appropriate concentration of glucose, 4mM L-glutamine, 1 mM sodium pyruvate and 1% penicillin-streptomycin solution) and incubated in a non-CO2 incubator at 37°C for 1 hour. Drugs were prepared at 8x to 10x concentrations with the corresponding seahorse media as in each well and added into ports of Seahorse XF96 cartridge plates which have been hydrated overnight. XFe96 Extracellular Flux Analyzer (Agilent) was used to measure oxygen consumption rate and extracellular acidification rate of cells with different drug treatments.

NRCMs [5] = assay: qRT-PCR of fetal, pro-inflammatory and ER stress genes with pathway-selective inhibitors; type: cell-based, rat; conditions: 24 h
Description: as §1
(§2) RNA was isolated based on a standard protocol using TRIzol reagent (Vazyme). TRIzol (1ml per 1 well of a 6-well plate) was used to lyse cells and chloroform was added for RNA separation. Samples were shaked vigorously by hand for 15 seconds and incubated at room temperature for 2-3 minutes. RNA was present in the aqueous phase after centrifuge at 12000 x g for 15 minutes. Isopropyl alcohol was mixed to precipitate RNA from the aqueous phase. RNA precipitations were washed with 75% ethanol once and re-dissolved in RNase-free water. 1 μg total RNA was used for cDNA synthesis using a reverse transcription kit (Bioman). We then measured expression of genes of interest with SYBRR Green qPCR Mix (Bioman) using Applied Biosystems 7500 Quantitative PCR Instrument. Gene expression was normalized to the 18S ribosomal RNA expression and primers were listed in Primers Table.

NRCMs [6] = conditions: ISRIB 200 nM or 4μ8c 10 μM with 10 µM sorafenib, 24-hr
Description: After treatment, cells were stained with 5 μg/mL Propidium iodide (Sigma-Aldrich) mixed with Hoechst33342 (Solarbio) in Phenol red-free DMEM (Procell) in a 5% CO2 incubator at 37°C for 30 minutes. Images of PI staining were acquired through the filter Ex/Em=555/624nm and of the nuclei staining through the filter Ex/Em=405/452 using ImageXpress Micro Confocal-AWES (Molecular Devices).

NRCMs [7] = assay: Mitochondrial membrane potential by TMRE staining; type: cell-based, rat; conditions: 24 h of treatment
Description: Fig S3 Mitochondrial membrane potential changes in response to TKIs. (A) Raw images of TMRE staining in NRCMs treated with different drugs. (B) Fold changes in mitochondrial membrane potential at different treatments.

H9C2 cell line = assay: qRT-PCR of inflammatory genes in H9C2 cells; type: cell-based, rat; conditions: ISRIB 200 nM or salubrinal 20 μM with 3 TKIs, 24-hr
Description: as §2
H9C2 cells were a gift from Dr. Rong Qi in Peking University Health Science Center (they were originally purchased from the Cell Bank/Stem cell bank, Chinese Academy of Science). […] Media was changed to DMEM (Gibco) containing 2% FBS 12 hours before treatment. All treatments were performed under DMEM containing 2% FBS.

ER stress genes in NRCMs = assay: qRT-PCR of ER stress genes in NRCMs; type: cell-based, rat; conditions: trolox 1 mM with afatinib or sorafenib
Description: as §1, with “The collected myocytes were seeded in the same media described before; 48 h after plating, medium was exchanged to fresh DMEM (Gibco) with or without 2% FBS.” left out
as §2, with “RNA precipitations were washed with 75% ethanol once and re-dissolved in RNase-free water.” left out

Row | SMILES | level of cardiotoxicity based on literature reports (patients) | effect on ATP levels (Cor.4U hiPSC-CMs [3]) | dose-dependent toxicity (ATP fold changes) (Cor.4U hiPSC-CMs [3]) | effect on beat rate, contraction, base impedance and corrected field potential duration (HELP hiPSC-CMs) | basal oxygen consumption rate (OCR) (NRCMs [4]) | other results
1 | CC(C)(OO)c1ccccc1 [cumene hydroperoxide] |  |  |  |  |  | level of lipid peroxidation, positive control (NRCMs [1]): 42%
2 | Cc1nc(Nc2ncc(C(=O)Nc3c(C)cccc3Cl)s2)cc(N2CCN(CCO)CC2)n1 [dasatinib] | medium-levels of cardiotoxicity | did not inhibit ATP at any dose or time point tested | did not | minimal effects on these parameters | trend of inhibiting basal oxygen consumption rate (OCR) | expression of genes associated with heart contraction (Cor.4U hiPSC-CMs [2]): upregulated; time-dependent toxicity (ATP fold changes) (Cor.4U hiPSC-CMs [3]): increasing toxicity with treatment duration
3 | Cc1cc(=O)oc2c(C=O)c(O)ccc12 [4μ8c] |  |  |  |  |  | induction of inflammatory genes and cardiac fetal genes (Anp, Bnp/Nppb, Myh6) by TKIs (NRCMs [5]; 4μ8c 10 μM co-treatment with TKIs): blunted; effect on Atf4, Ddit3, Xbp1s and Dnajb9 expression induced by TKIs (NRCMs [5]; ISRIB 200 nM or 4μ8c 10 μM with TKIs): inhibited Xbp1s and Dnajb9 without affecting the ATF4 axis; rescue from cell death induced by sorafenib (NRCMs [6]): significantly rescued cardiac cell from death induced by sorafenib
4 | CCN(CC)CCNC(=O)c1c(C)[nH]c(/C=C2\C(=O)Nc3ccc(F)cc32)c1C [sunitinib] | high-levels of cardiotoxicity | dose-dependent and time-dependent reduction in ATP levels | dose-dependent toxicity | increased beat rate initially and reduced the base impedance very acutely | trend of inhibiting basal oxygen consumption rate (OCR) | congestive heart failure (patients; meta-analysis of 6935 patients): 4.1%; expression of mitochondrial tRNA and electron transfer chain genes (Cor.4U hiPSC-CMs [2]): upregulated; time-dependent toxicity (ATP fold changes) (Cor.4U hiPSC-CMs [3]): increasing toxicity with treatment duration; maximal, spare and non-mitochondrial oxygen consumption (NRCMs [4]): inhibited maximal, spare, and non-mitochondrial oxygen consumption significantly; mitochondrial membrane potential (NRCMs [7]): trend of decreasing mitochondrial membrane potentials
5 | COc1cc2ncnc(Nc3ccc(F)c(Cl)c3)c2cc1OCCCN1CCOCC1 [gefitinib] | low cardiotoxicity | did not inhibit ATP at any dose or time point tested | did not | minimal effects on these parameters |  | expression of genes associated with heart contraction (Cor.4U hiPSC-CMs [2]): upregulated
6 | O=C(/C=C/c1ccccc1)NC(NC(=S)Nc1cccc2cccnc12)C(Cl)(Cl)Cl (stereo not drawn) [salubrinal] |  |  |  |  |  | expression of inflammatory genes induced by TKIs (H9C2 cell line): increased the expression level of some pro-inflammatory genes, such as Nfkb1, Il6, and Tnf, but not Il1b
7 | Cc1c(C)c2c(c(C)c1O)CCC(C)(C(=O)O)O2 (stereo not drawn) [trolox] |  |  |  |  |  | effect on induction of ER stress by TKIs (ER stress genes in NRCMs): did not block the induction of ER stress by these TKIs
8 | Cc1cn(-c2cc(NC(=O)c3ccc(C)c(Nc4nccc(-c5cccnc5)n4)c3)cc(C(F)(F)F)c2)cn1 [nilotinib] | medium-levels of cardiotoxicity | dose-dependent and time-dependent reduction in ATP levels |  | minimal effects on these parameters |  | EC50 (ATP) compared with maximal plasma concentration (Cmax) (Cor.4U hiPSC-CMs [3]; day 5): lower than or similar to their maximal plasma concentrations (Cmax); mitochondrial membrane potential (NRCMs [7]): trend of decreasing mitochondrial membrane potentials
9 | C[C@@H](Oc1cc(-c2cnn(C3CCNCC3)c2)cnc1N)c1c(Cl)ccc(F)c1Cl [crizotinib] | medium-levels of cardiotoxicity | dose-dependent and time-dependent reduction in ATP levels | dose-dependent toxicity | stopped beating and contraction of hiPSC-CMs after 0.5 h of treatment | trend of inhibiting basal oxygen consumption rate (OCR) | expression of mitochondrial tRNA and electron transfer chain genes (Cor.4U hiPSC-CMs [2]): upregulated
